Molecular target: T1, PHEC27213 (PxLPMO1) (Podosphaera xanthii, UniProt A0A8E4PV92)
T1 construct: gene SHLPMO1; mature protein, signal peptide removed (191 residues), C-terminal 6xHis tag kept, pET30b NdeI/XhoI, E. coli BL21-CodonPlus-RIL; start Met from NdeI site probably before His1
Assay: MALDI-TOF-MS of reaction products
Assay type: biochemical
Conditions: 1 mM ascorbic acid as reductant, 0.1 M sodium phosphate pH 7.0, 37 °C overnight, 1 μM enzyme; no copper addition told

T1 sequence (A0A8E4PV92 entry or part of it): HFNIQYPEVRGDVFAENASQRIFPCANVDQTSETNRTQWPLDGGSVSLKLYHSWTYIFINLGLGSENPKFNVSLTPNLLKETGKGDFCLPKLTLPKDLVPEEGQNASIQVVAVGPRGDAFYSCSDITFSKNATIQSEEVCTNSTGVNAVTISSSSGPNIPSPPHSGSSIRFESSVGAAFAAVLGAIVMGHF

`CC(=O)N[C@H]1[C@H](O[C@H]2[C@H](O)[C@@H](NC(C)=O)[C@H](O[C@H]3[C@H](O)[C@@H](NC(C)=O)[C@H](O[C@H]4[C@H](O)[C@@H](NC(C)=O)C(O)O[C@@H]4CO)O[C@@H]3CO)O[C@@H]2CO)O[C@H](CO)[C@@H](O[C@@H]2O[C@H](CO)[C@@H](O[C@@H]3O[C@H](CO)[C@@H](O[C@@H]4O[C@H](CO)[C@@H](O)[C@H](O)[C@H]4NC(C)=O)[C@H](O)[C@H]3NC(C)=O)[C@H](O)[C@H]2NC(C)=O)[C@@H]1O` (stereo partly shown) [DP7, hepta-N-acetylchitoheptaose] was tested, and the “MALDI-TOF-MS of reaction products” value was “PHEC27213 was able to release, predominantly, DP5 oligosaccharides”.

— paper PMC8035642, “A haustorial‐expressed lytic polysaccharide monooxygenase from the cucurbit powdery mildew pathogen Podosphaera xanthii contributes to the suppression of chitin‐triggered immunity” (Molecular Plant Pathology, 2021)
